The record followed here is PMC3691140, “FGT-1 Is a Mammalian GLUT2-Like Facilitative Glucose Transporter in Caenorhabditis elegans Whose Malfunction Induces Fat Accumulation in Intestinal Cells” (PLoS ONE, 2013).

For orientation: inhibition means the relative decrease from the control value, in per cent.

For one assay, the target named is T1, FGT-1 (Caenorhabditis elegans, UniProt O44827).
T1 construct: gene fdgt-1; full-length fgt-1a cDNA in pSP64T, untagged, cRNA-injected Xenopus laevis oocytes
T1 sequence (O44827 1-492 isoform O44827-2): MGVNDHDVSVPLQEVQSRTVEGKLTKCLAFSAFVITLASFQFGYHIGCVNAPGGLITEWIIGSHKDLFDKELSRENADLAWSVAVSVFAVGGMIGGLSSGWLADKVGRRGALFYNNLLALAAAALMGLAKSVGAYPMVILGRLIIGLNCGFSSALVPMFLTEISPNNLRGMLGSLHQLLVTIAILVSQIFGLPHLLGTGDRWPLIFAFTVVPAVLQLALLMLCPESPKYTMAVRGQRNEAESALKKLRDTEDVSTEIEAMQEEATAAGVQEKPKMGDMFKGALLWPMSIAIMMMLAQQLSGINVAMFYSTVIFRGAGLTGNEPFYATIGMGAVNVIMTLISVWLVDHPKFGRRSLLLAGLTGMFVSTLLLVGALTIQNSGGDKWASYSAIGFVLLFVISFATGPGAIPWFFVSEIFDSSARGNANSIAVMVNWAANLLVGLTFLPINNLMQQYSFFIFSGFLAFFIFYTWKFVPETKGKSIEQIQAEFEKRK
The assay can be described thus: inhibition of 3H-2-DG uptake in Xenopus oocytes. It counts as cell-based. The settings on record: read-out: % inhibition at 30 mM.
Turning to `CO[C@H]1[C@H](O)[C@@H](CO)OC(O)[C@@H]1O` (stereo partly drawn) [3-O-methylglucose], the inhibition at 30000 µM was 77%.

Turning to `OC[C@H]1OC(O)[C@H](O)[C@@H](O)[C@H]1O` (stereo partly drawn) [D-galactose], the inhibition at 30000 µM stood at 33%.

With `OCC1(O)OC[C@@H](O)[C@@H](O)[C@@H]1O` (stereo partly drawn) [D-fructose], the inhibition at 30000 µM was determined as 42%.

As to `OC[C@H]1OC(O)[C@H](O)[C@@H](O)[C@@H]1O` (stereo partly drawn) [D-glucose], the inhibition at 30000 µM came out at 79%.

Take `OC[C@H]1OC(O)[C@@H](O)[C@@H](O)[C@@H]1O` (stereo partly drawn) [D-mannose]: the inhibition at 30000 µM came out at 79%.

In the next assay the target is T2, hGLUT1 (Homo sapiens, UniProt P11166).
T2 construct: gene SLC2A1; pSP64T-hGLUT1, cRNA-injected Xenopus laevis oocytes
T2 sequence (P11166 1-492): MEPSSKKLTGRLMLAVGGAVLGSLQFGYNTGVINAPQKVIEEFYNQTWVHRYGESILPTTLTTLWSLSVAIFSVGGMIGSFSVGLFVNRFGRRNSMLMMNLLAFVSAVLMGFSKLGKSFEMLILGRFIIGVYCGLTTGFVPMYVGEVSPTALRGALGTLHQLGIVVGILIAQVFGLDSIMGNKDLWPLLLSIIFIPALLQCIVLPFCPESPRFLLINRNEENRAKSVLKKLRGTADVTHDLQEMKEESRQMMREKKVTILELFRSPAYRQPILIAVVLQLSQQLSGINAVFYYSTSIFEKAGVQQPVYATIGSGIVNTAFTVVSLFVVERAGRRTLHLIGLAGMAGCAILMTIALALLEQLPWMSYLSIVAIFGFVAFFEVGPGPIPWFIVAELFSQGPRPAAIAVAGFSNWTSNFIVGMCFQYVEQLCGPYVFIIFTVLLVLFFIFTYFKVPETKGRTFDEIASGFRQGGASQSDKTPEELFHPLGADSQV
As to the kind of experiment: 3H-2-DG uptake in cRNA-injected Xenopus oocytes. To be noted: 10 mM 2-DG, 15 min, pH 7.6; positive control; labelled compound as tracer. The format is cell-based.
Take `OC[C@H]1OC(O)C[C@@H](O)[C@@H]1O` (stereo partly drawn) [2-deoxy-D-glucose]: the “3H-2-DG uptake in cRNA-injected Xenopus oocytes” value is listed as “The hGLUT1 cRNA-injected oocytes were used as a positive control”.
